These results are taken from patent publication US6395740B1, “Calcitonin mimetics” (ZymoGenetics, Inc., priority 1997, dated 2002).

Series [1] deals with PTH-induced bone resorption in mouse calvariae. Nature of the series: Calvarial assay: inhibition of PTH-induced bone resorption (calcium release). In kind it is cell-based. Conditions: 1 nM PTH 1-34, 72 hours, read-out: Release of PTH Induced Ca++ IC50. The protocol: Calvaria from 4-day old neonatal CD-1 mice (pregnant mice received from Charles River Laboratories, Wilmington, Mass.) were trimmed with fine-tipped scissors to leave the parietal regions, including the sagittal suture. These trimmed bones were placed singly per well into 6-well cell culture cluster plates (Costar, Pleasanton, Calif.) with 1 mL/well of growth medium (DMEM, BioWhittaker, Walkersville, Md.) with 4.5 g/L glucose, 0.29 mg/mL L-glutamine, 1 mM sodium pyruvate, 15% heat-inactivated horse serum, and antibiotics (penicillin-G 50 μg/mL, streptomycin 50 μg/mL, and neomycin 100 μg/mL), and rocked gently (RedRocker™, model PR50-115V, Hoefer, San Francisco, Calif.) at 37° C. in a 5% CO2 humidified incubator for 24 hours preincubation.
Following preincubation, medium was removed and replaced with 1.5 mL/well of growth medium containing 1 nM parathyroid hormone (PTH) 1-34 (Sigma) to stimulate bone resorption. For evaluation of the ability of calcitonin mimetics to inhibit PTH induced bone resorption, mimetic compounds in DMSO were added to the growth medium at concentrations ranging from 1-400 μg/mL (final assay concentration of DMSO less than or equal to […]). In each exierimerec human calcitonin (0.02-20 nM, 0.2-2 nM preferred) was added to PTH treated bones as a positive control. […] All control wells contained a final assay concentration of DMSO equal to that present in calcitonin mimetic treated wells.
Five bones were included in each sample group. Bones were incubated for 72 hours following PTH addition to allow resorption of bone to occur. Observations were made of the general appearance, healthiness and number of cells that migrate from the calvaria during the incubation as a possible indication of possible toxicity. Calvaria to be examined histologically were transferred to glass scintillation vials containing 10 mL of 10% neutral buffered formalin. The medium was removed from the wells, and total calcium measurements were made using a Nova 7/7+7 Electrolyte Analyzer (Nova Biomedical, Waltham, Mass.) according to the manufacturer's specifications. Induction of bone resorption by PTH is seen as an increase in the concentration of calcium in the growth medium due to degradation of the bone matrix.

Series [2] concerns the target T1, human calcitonin receptor (Homo sapiens, UniProt P30988).
T1 construct: expressed in transfected cells; host or cells: BHK (baby hamster kidney) cells, line Hollex-2 (Hollex 1 in the general description)
T1 sequence (P30988 25-474): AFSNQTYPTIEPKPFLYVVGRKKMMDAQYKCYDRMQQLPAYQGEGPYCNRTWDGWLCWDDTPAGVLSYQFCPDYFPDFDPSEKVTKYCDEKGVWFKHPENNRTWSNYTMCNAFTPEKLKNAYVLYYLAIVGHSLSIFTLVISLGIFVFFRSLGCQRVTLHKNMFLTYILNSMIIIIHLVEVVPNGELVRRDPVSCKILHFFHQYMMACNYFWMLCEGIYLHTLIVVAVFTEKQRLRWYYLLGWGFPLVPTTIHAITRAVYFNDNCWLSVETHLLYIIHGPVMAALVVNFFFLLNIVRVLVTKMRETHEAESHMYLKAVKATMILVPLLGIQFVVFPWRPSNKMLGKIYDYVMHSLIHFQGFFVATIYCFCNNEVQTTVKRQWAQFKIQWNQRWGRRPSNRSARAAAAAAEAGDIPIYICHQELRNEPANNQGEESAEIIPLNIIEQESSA
Nature of the series: CRE-luciferase assay for calcitonin mimetic activity. The format is cell-based. An excerpt: An alternative assay system (described in WO96/31536 which is incorporated herein in its entirety) involves selection of substances that are able to induce expression of a cyclic AMP response element (CRE)-luciferase reporter gene, as a consequence of elevated cAMP levels, in cells expressing a calcitonin receptor, but not in cells lacking calcitonin receptor expression. Such cells could include, for example, Boris/KS10-3 (expressing hamster calcitonin receptor and a CRE-luciferase reporter gene in baby hamster kidney cells (BHK 570 cells)) or Hollex 1 (expressing human calcitonin receptor and a CRE-luciferase reporter gene in BHK cells, as described in WO96/31536) or KZ10-20-48/pLJ6-4-25, which expresses the human glucagon receptor and a CRE-luciferase reporter gene in BHK cells. The human glucagon receptor is another member of the G-protein-coupled receptor family that transduces signal through adenylate cyclase-mediated elevation of cAMP.
This CRE-luciferase assay measures the end result of a multi-step signal transduction pathway triggered when a calcitonin mimetic stimulates the G-coupled calcitonin receptor. The complexity of this pathway provides multiple mechanisms for induction of luciferase transcription at points that are downstream of the calcitonin receptor, and therefore may not be calcitonin receptor-specific (e.g., forskolin's direct activation of adenylate cyclase). Any response triggered by non-specific inducers is eliminated by counter screening using the calcitonin receptor-negative cell lines described above.
Receptor-positive and -negative cell lines were maintained by serial passage in growth medium (DMEM supplemented with 10% heat-inactivated fetal calf serum (HI-FCS), 2 mM L-glutamine, 1 mM sodium pyruvate, 250 nM MTX, and 1 mg/mL G418). On the day prior to assay, cells were trypsinized, adjusted to 2×10^5 cells/mL in growth medium, plated in opaque white Dynatech Microlite microtiter tissue culture plates at 100 μL/well (2×10^4 cells), and grown overnight to confluence (37° C., 5% CO2 atmosphere)
Test substances were prepared in DMSO at 100 times the final desired assay concentration. Induction was initiated by adding 100 μL/well test substance diluted 1:100 or 1:1000 (only first round screening extracts were diluted 1:100) in assay medium (DMEM supplemented with 10% HI-FCS, 2 mM L-glutamine, 1 mM sodium pyruvate and 20 mM Hepes, pH 7.25). Controls were included on each plate: untreated wells (basal), […] forskolin, and 100 nM human calcitonin. For test substances prepared in DMSO, an equal concentration of DMSO was included in control wells (not to exceed a final assay concentration of 2% DMSO, with a preferred maximum of 1%). Plates were incubated for 3 to 8 hours (4 hours preferred) at 37° C. in an atmosphere of 5% CO2.
Following induction, luciferase activity was measured using a Promega luciferase assay kit (E1500) according to the assay kit protocol. Briefly, assay medium was removed and cells were washed once with phosphate buffered saline (PBS). After the wash, 25 μL of lysis buffer was added to each well, and the plates were incubated for 15 minutes at room temperature. Fifty microliters of Luciferase Assay Substrate (Promega, Corp.) was added to each well and the plates were transferred to a Labsystems Lumiscan microtiter luminometer. The amount of luminescence (relative light units, RLU) was determined by “Fastscan” following a 0.1 second/well integration of signal. Basal (uninduced) luciferase signal was subtracted from all measurements, and the luciferase signal induced by test samples was expressed as a percentage of the signal in the calcitonin and forskolin controls. […]

For series [3] the following is noted: rats, evaluated by pQCT or histomorphometry; cited from earlier work.

Values after ≈ are worked out from the molar mass of the structure shown.

For orientation: IC50 means the concentration that inhibits the measured activity by half. The EC50 is the concentration at which the effect is half-maximal. In the case of `COc1cc(CN2CCN(C(=O)Nc3cccc(C(F)(F)F)c3)CC2)cc(O)c1OC` [Compound 50-2013], the IC50 in series [1] came out at 15 µg/mL (≈ 34.1 µM). In addition, the EC50 in series [2] was 43.2 µM.

Consider `COc1cc(CN2CCN(Cc3ccc(OC)c(OC)c3OC)CC2)cc(I)c1O` [Compound 850-0221], for which the EC50 in series [2] was 291 µM.

In general, melting point refers to the temperature, or range, at which the solid turns liquid. Compound `COc1cc(CN2CCN(C(=O)Nc3cccc(C(F)(F)F)c3)CC2)cc(OC)c1OC` [Compound 850-0277] registered a melting point of 79 to 82 °C. For the same compound, the IC50 in series [1] came out at 50 µg/mL (≈ 110 µM).

As to `COc1ccc(CN2CCN(Cc3cc(I)c(O)c(OC)c3)CC2)cc1C` [Compound 850-0293], in series [1], the IC50 fell in the range of 25 to 50 µg/mL (≈ 51.8 to 104 µM). Further, the half-maximal effective concentration (EC50) in series [2] fell in the range of 51.8 to 104 µM.

As to `COc1cc(CN2CCN(Cc3cc(Br)cc(Br)c3O)CC2)cc(OC)c1OC` [Compound 850-1085], the IC50 in series [1] is 20 µg/mL (≈ 37.7 µM). Also, the EC50 in series [2] is 66.9 µM.

For the compound `COc1cc(CN2CCN(Cc3cc(Br)ccc3O)CC2)cc(Br)c1O` [Compound 850-2346], the IC50 in series [1] was determined as 25 µg/mL (≈ 51.4 µM). Besides, the EC50 in series [2] is 206 µM.

Regarding calcitonin, the “bone loss associated with combined ovariectomy and immobilization” value in series [3] is “very effective at reducing bone loss”.
